This is an account of results in publication PMC6679423 (International Journal of Molecular Sciences, 2019).

Common to all, as to format: in vitro ADME
For series [1], the system named is CYP2D6, 3A5, 1A1 and 2C8. The series can be described thus: Contributions of other CYPs to N-desmethylvandetanib formation in human livers. The conditions noted are these: with cytochrome b5. The procedure: The contributions of these enzymes were calculated by relative activity factor because the activities of CYPs in Supersomes™ also need to be considered in addition to the relative contents of CYPs in the livers. […] Of CYPs in human liver, CYP3A4 is the major enzyme present in this human organ (~30% of the CYP hepatic complement), followed by CYP2C9 and 1A2 (~15% and ~13%, respectively), while CYP2C19, 2E1 2A6, 2D6, 2C8 and 3A5 are present in human liver at levels that range from ~2.5% to ~8.5% (see Reference for an overview).

The test system of series [2] is human recombinant CYP2C8. As to the kind of experiment: Vandetanib oxidation by human recombinant CYP2C8 (Supersomes). The method, then: Vandetanib was from LC Laboratories (Woburn, MA, USA). Ketoconazole, NADPH, methimazol and other chemicals were all purchased from Sigma-Aldrich (St. Louis, MO, USA). The purity of all chemicals met the standards of American Chemical Society, unless noted otherwise. All animal experiments were conducted in accordance with the Regulations for the Care and Use of Laboratory Animals (311/1997, Ministry of Agriculture, Czech Republic), which follows the Declaration of Helsinki. Male Wistar rats (~125–150 g; AnLab, Czech Republic), male C57BL/6 mice ([…]; CXR Bioscience Ltd., Dundee, UK), and male New Zealand rabbits (2.5–3 kg; AnLab, Czech Republic) were employed as animal models. Animals were placed in cages in temperature- and humidity-controlled rooms, acclimatized for five days and maintained at 22 °C with a 12 h light/dark period. Standardized diet and water were provided ad libitum. Rats, mice and rabbits used to prepare microsomal fraction from untreated animals were sacrificed by cervical dislocation, livers snap-frozen in liquid nitrogen and stored at −80 °C until further processing (see below). […] Protein concentrations in the microsomal fractions were assessed using the bicinchoninic acid protein assay with bovine serum albumin as a standard. […]

For series [3], the target named is T1, human recombinant CYP3A4 (Homo sapiens, UniProt P08684).
T1 construct: purchased Gentest Corp; host or cells: insect cells (baculovirus)
As to the kind of experiment: Vandetanib oxidation by human recombinant CYP3A4 (Supersomes). The method, then: The purity of all chemicals met the standards of American Chemical Society, unless noted otherwise. […] Animals were placed in cages in temperature- and humidity-controlled rooms, acclimatized for five days and maintained at 22 °C with a 12 h light/dark period. Standardized diet and water were provided ad libitum. Rats, mice and rabbits used to prepare microsomal fraction from untreated animals were sacrificed by cervical dislocation, livers snap-frozen in liquid nitrogen and stored at −80 °C until further processing (see below). For controls, livers of the animals were removed immediately after sacrifice, divided into small pieces (~1 g), snap-frozen in liquid nitrogen, and stored at −80 °C until isolation of microsomal fractions. Pooled microsomes were used for all in vitro experiments in the present study and prepared from 10 livers/group for all animal species following established protocols. Microsomal fractions were stored at −80 °C until analysis. Protein concentrations in the microsomal fractions were assessed using the bicinchoninic acid protein assay with bovine serum albumin as a standard. […] Microsomes from livers of twelve human donors were obtained from Gentest Corp. (Woburn, MA, USA) (cat. no. HG43–1, HG103, HG74, HG93, HG24, HG27, HG23, HG32, HK31, HK34, HG03, and HG42). […]

Series [4] has as its system human liver microsomes. As to the kind of experiment: Vandetanib metabolite formation by hepatic microsomes of 12 human donors. The procedure:
Vandetanib was from LC Laboratories (Woburn, MA, USA). Ketoconazole, NADPH, methimazol and other chemicals were all purchased from Sigma-Aldrich (St. Louis, MO, USA). The purity of all chemicals met the standards of American Chemical Society, unless noted otherwise. All animal experiments were conducted in accordance with the Regulations for the Care and Use of Laboratory Animals (311/1997, Ministry of Agriculture, Czech Republic), which follows the Declaration of Helsinki. Male Wistar rats (~125–150 g; AnLab, Czech Republic), male C57BL/6 mice ([…]; CXR Bioscience Ltd., Dundee, UK), and male New Zealand rabbits (2.5–3 kg; AnLab, Czech Republic) were employed as animal models. Animals were placed in cages in temperature- and humidity-controlled rooms, acclimatized for five days and maintained at 22 °C with a 12 h light/dark period. Standardized diet and water were provided ad libitum. Rats, mice and rabbits used to prepare microsomal fraction from untreated animals were sacrificed by cervical dislocation, livers snap-frozen in liquid nitrogen and stored at −80 °C until further processing (see below). For controls, livers of the animals were removed immediately after sacrifice, divided into small pieces (~1 g), snap-frozen in liquid nitrogen, and stored at −80 °C until isolation of microsomal fractions. Pooled microsomes were used for all in vitro experiments in the present study and prepared from 10 livers/group for all animal species following established protocols. Microsomal fractions were stored at −80 °C until analysis. Protein concentrations in the microsomal fractions were assessed using the bicinchoninic acid protein assay with bovine serum albumin as a standard. Male human hepatic microsomes (pooled sample) (sample LOT: 3043885) were from Gentest Corp. (Woburn, MA, USA). Microsomes from livers of twelve human donors were obtained from Gentest Corp. (Woburn, MA, USA) (cat. no. HG43–1, HG103, HG74, HG93, HG24, HG27, HG23, HG32, HK31, HK34, HG03, and HG42). Each human microsomal sample has been characterized for CYP, FMO and protein contents and specific CYP activities by Gentest Corp. We reanalyzed each microsomal preparation for specific CYP, NADPH:CYP reductase (POR) and FMO activities by assays described in the protocols of Gentest Corp. Our data were similar to those reported by Gentest Corp. in their specification sheets. The content of CYP, specific CYP and FMO activities in each human hepatic microsomes [phenacetin-O-deethylation (CYP1A2), coumarin-7-hydroxylation (CYP2A6), (S)-mephenytoin-N-demethylase (CYP2B6), paclitaxel-6α-hydroxylation (CYP2C8), diclofenac-4’-hydroxylation (CYP2C9), (S)-mephenytoin-4′-hydroxylation (CYP2C19), bufuralol-1’-hydroxylation (CYP2D6), chlorzoxazone-6-hydroxylation (CYP2E1), testosterone-6β-hydroxylation (CYP3A4), lauric acid-12-hydroxylation (CYP4A), methyl-p-tolyl sulfide oxidase (FMO)] are shown in Table 2. Human recombinant enzymes were used in the forms of Supersomes™ and obtained from Gentest Corp. In Supersomes™ microsomal fractions were isolated from insect cells that are transfected with baculovirus constructs containing cDNA of human CYP enzymes (CYP1A1/2, 1B1, 2A6, 2B6, 2C8/9/18/19/, 2D6, 2E1, 3A4). These Supersomes™ also express NADPH:CYP oxidoreductase (POR). However, because they are microsomes (particles of broken endoplasmic reticulum), other enzymes (proteins) of the endoplasmic reticulum membrane (like NADH:cytochrome b5 reductase and cytochrome b5) are also expressed at basal levels in these Supersomes™. We also utilized Supersomes™ which over-expressed cytochrome b5, in a molar ratio of CYP to cytochrome b5 of 1 to 5. In Supersomes™ where cytochrome b5 was not over-expressed (see above) pure cytochrome b5 was added to reach a molar ratio of CYP to cytochrome b5 of 1 to 5. Reconstitution of Supersomes™ with purified cytochrome b5 was performed as described previously. […]

Setting [5] is: without consideration of cytochrome b5.

T1 sequence (P08684 2-503 limits assumed): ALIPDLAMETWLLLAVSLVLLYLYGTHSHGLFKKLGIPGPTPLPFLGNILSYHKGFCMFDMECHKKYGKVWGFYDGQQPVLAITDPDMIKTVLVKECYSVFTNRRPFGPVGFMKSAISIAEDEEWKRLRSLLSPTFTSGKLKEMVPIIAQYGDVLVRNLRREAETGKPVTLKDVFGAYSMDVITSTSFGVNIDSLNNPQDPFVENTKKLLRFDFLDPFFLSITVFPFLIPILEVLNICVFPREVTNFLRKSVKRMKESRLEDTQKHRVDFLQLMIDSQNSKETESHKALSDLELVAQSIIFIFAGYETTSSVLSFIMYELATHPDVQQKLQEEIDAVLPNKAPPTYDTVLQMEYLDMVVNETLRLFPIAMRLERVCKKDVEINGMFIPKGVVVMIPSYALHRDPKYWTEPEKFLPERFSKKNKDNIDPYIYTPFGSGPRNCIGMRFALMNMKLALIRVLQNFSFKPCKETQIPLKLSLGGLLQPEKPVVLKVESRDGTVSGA

On to `COc1cc2c(Nc3ccc(Br)cc3F)ncnc2cc1OCC1CCNCC1` [N-desmethylvandetanib], for which the “contribution in total of other human CYPs (CYP2D6, 3A5, 1A1 and 2C8) to N-desmethylvandetanib formation” value in series [1] was ~ 0.4%. Besides, the “fold increase of N-desmethylvandetanib formation by cytochrome b5” value in series [2] (CYP2C8 with vs without cytochrome b5) is 1.6 fold. Also, the “contribution of CYP2C8 to N-desmethylvandetanib formation in human liver” value in series [2] (setting [5]) is less than 0.3%. For the same compound, the “contribution of CYP3A4 to N-desmethylvandetanib formation in human liver” value in series [3] (with cytochrome b5) is ~ 99.6%; in series [3] (setting [5]), ~ 97.7%. Besides, the “N-desmethylvandetanib (M1) formed” value in series [4] (human hepatic microsomal sample HG03) is on record as 3.639 peak area/(mg protein × min); in series [4] (human hepatic microsomal sample HG24), 1.698 peak area/(mg protein × min); in series [4] (human hepatic microsomal sample HG32), 0.870 peak area/(mg protein × min); in series [4] (human hepatic microsomal sample HG42) it was 8.887 peak area/(mg protein × min); in series [4] (human hepatic microsomal sample HG43) it was 1.830 peak area/(mg protein × min); in series [4] (human hepatic microsomal sample HG74) it was 0.714 peak area/(mg protein × min). Also, the “N-desmethylvandetanib (M1) formed” value in series [4] (human hepatic microsomal sample HG93) was 0.966 peak area/(mg protein × min); in series [4] (human hepatic microsomal sample HG103), 1.021 peak area/(mg protein × min); in series [4] (human hepatic microsomal sample HK31), 4.124 peak area/(mg protein × min); in series [4] (human hepatic microsomal sample HK34), 3.193 peak area/(mg protein × min).
